Test results from ChEMBL document CHEMBL1909046, “DrugMatrix in vitro pharmacology data”.

How the values were obtained:
[1] = target: T1, Alpha-1A adrenergic receptor (Rattus norvegicus, UniProt P43140); assay: DRUGMATRIX: Alpha-1A adrenergic receptor radioligand binding (ligand: prazosin); assay type: cell membranes, Wistar, Submaxillary gland, Membrane; conditions: Not Active = under 50% inhibition at 10 µM
T1 sequence (P43140 whole entry): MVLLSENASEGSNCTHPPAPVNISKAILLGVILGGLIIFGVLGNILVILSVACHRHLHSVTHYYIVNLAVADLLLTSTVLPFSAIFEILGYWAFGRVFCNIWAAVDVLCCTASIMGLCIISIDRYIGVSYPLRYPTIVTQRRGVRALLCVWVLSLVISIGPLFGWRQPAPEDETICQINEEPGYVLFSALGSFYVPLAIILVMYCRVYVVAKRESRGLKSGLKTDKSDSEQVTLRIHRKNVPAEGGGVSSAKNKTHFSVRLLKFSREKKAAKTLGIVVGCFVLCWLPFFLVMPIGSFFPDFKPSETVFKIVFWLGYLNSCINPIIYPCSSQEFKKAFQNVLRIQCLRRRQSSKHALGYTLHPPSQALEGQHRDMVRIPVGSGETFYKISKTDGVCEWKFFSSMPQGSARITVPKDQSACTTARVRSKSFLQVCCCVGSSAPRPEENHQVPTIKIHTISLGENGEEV

[2] = target: 5-hydroxytryptamine receptor 2B (Homo sapiens, UniProt P41595); assay type: cell membranes, CHO-K1, Membrane; note: in other assays of this panel Not Active means under 50% inhibition at 10 µM
Substance-P receptor = Substance-P receptor (Homo sapiens, UniProt P25103); assay type: cell membranes, Membrane; conditions: cho; note: in other assays of this panel Not Active means under 50% inhibition at 10 µM
Thromboxane-A synthase = target: T2, Thromboxane-A synthase (Homo sapiens, UniProt P24557); assay: biochemical; assay type: tissue-based, Platelet; conditions: platelet;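 note: enzyme inhibition assay with PGH2 supplied as substrate; in other assays of this panel Not Active means under 50% inhibition at 10 µM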
T2 sequence (P24557 whole entry): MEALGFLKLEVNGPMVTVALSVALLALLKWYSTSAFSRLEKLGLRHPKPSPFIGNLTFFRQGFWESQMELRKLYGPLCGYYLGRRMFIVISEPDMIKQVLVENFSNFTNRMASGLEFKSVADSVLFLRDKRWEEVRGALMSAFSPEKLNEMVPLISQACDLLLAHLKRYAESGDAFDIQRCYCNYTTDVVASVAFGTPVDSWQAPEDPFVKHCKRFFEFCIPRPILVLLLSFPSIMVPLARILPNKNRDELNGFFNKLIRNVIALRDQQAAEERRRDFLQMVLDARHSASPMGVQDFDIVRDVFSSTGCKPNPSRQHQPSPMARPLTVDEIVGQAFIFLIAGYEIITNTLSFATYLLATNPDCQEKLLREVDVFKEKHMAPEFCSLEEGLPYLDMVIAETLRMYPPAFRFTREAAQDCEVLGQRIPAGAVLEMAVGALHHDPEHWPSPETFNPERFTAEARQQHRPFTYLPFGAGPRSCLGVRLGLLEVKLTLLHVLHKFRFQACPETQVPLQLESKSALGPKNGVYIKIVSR

[3] = DRUGMATRIX: GABAA, Chloride Channel, TBOB radioligand binding (ligand: [3H] TBOB); assay type: cell membranes, Rattus norvegicus, Wistar, Cerebral cortex, Membrane; conditions: Not Active = under 50% inhibition at 10 µM
Neutrophil elastase = target: T3, Neutrophil elastase (Homo sapiens, UniProt P08246); assay type: tissue-based;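 note: inhibition of neutrophil elastase enzyme activity, measured with a p-nitroanilide-linked peptide substrate; in other assays of this panel Not Active means under 50% inhibition at 10 µM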
T3 sequence (P08246 whole entry): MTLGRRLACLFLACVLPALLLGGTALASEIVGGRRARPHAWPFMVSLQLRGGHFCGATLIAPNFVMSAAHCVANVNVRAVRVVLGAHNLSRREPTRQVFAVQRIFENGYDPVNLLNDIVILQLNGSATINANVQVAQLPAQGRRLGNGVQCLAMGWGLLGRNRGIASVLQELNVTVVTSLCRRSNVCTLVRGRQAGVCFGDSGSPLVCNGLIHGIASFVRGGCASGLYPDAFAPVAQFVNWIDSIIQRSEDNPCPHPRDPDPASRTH

[4] = target: Matrix metalloproteinase-9 (Homo sapiens, UniProt P14780); assay type: cell-based
Matrix metalloproteinase-9, sequence (P14780 whole entry): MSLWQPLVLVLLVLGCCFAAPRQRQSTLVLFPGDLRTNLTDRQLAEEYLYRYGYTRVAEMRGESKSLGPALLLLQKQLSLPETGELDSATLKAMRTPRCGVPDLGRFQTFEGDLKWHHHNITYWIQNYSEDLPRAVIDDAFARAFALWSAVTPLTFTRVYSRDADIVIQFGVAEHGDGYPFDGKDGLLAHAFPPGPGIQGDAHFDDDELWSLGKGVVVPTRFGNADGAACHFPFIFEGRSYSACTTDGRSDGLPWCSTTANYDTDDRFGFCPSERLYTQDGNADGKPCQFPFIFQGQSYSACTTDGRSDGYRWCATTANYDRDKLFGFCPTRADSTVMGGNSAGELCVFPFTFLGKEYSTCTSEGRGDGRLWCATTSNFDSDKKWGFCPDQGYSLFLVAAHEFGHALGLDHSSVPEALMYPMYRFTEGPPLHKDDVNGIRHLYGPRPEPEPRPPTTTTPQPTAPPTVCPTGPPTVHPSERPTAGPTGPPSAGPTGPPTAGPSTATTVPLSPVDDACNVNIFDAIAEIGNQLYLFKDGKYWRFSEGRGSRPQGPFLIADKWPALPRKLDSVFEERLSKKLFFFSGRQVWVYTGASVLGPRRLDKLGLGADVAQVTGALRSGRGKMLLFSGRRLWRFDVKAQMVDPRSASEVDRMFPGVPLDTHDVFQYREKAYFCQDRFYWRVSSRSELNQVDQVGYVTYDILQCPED

5-hydroxytryptamine receptor 2B, sequence (P41595 whole entry): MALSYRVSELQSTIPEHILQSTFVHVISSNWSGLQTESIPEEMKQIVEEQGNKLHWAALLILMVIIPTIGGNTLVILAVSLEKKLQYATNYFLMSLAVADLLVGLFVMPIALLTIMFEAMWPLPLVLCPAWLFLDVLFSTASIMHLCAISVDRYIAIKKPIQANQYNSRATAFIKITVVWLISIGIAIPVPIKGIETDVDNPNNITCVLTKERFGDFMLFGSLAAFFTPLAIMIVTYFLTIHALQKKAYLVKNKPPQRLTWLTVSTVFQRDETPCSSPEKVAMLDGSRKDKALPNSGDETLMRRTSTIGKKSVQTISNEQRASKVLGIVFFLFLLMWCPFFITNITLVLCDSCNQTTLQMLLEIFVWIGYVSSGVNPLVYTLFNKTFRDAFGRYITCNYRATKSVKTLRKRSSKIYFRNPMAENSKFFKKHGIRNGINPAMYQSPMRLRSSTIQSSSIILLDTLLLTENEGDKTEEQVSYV
Substance-P receptor, sequence (P25103 whole entry): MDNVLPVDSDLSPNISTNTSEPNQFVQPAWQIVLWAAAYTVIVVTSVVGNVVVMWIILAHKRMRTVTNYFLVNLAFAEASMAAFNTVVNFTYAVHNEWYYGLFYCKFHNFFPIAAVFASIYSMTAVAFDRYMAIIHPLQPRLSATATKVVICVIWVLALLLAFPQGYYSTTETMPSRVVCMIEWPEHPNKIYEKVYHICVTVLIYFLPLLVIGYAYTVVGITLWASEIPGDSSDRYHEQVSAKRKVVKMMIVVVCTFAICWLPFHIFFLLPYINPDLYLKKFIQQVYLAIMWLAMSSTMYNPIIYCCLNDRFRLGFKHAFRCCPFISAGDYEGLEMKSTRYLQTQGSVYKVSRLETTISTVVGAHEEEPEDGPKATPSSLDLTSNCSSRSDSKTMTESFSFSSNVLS

Row | Compound | IC50 [1] | IC50 ([2]; cho-k1) | IC50 (Substance-P receptor) | IC50 (Thromboxane-A synthase) | IC50 [3] | Ki [3] | IC50 (Neutrophil elastase) | IC50 [4] | Ki [1] | Ki ([2]; cho-k1) | Ki (Substance-P receptor) | Ki (Thromboxane-A synthase) | Ki (Neutrophil elastase) | Ki [4] | IC50 ([2]; read-out: IC50) | Ki ([2]; read-out: Ki)
1 | COc1ccc(Cl)cc1C(=O)NCCc1ccc(S(=O)(=O)NC(=O)NC2CCCCC2)cc1 [GLYBURIDE] | Not Active | Not Active | Not Active | Not Active | Not Active | Not Active | Not Active | Not Active | – | – | – | – | – | – | – | –
2 | CHROMIC CHLORIDE | Not Active | Not Active | Not Active | Not Active | Not Active | Not Active | Not Active | Not Active | Not Active | Not Active | Not Active | Not Active | Not Active | Not Active | – | –
3 | CCN1C[C@]2(COC)[C@H](O)C[C@H](OC)[C@@]34[C@@H]5C[C@@]6(O)[C@H](OC(=O)c7ccccc7)[C@@H]5[C@@](OC(C)=O)([C@@H]([C@H](OC)[C@H]23)[C@@H]14)[C@@H](O)[C@@H]6OC [ACONITINE] | Not Active | Not Active | Not Active | Not Active | Not Active | Not Active | Not Active | Not Active | – | – | – | – | – | – | – | –
4 | O=C(O)CCc1nc(-c2ccccc2)c(-c2ccccc2)o1 [OXAPROZIN] | Not Active | Not Active | Not Active | Not Active | Not Active | Not Active | Not Active | Not Active | – | – | – | – | – | – | – | –
5 | Cc1ccnc2c1NC(=O)c1cccnc1N2C1CC1 [NEVIRAPINE] | Not Active | Not Active | Not Active | Not Active | Not Active | Not Active | Not Active | Not Active | – | – | – | – | – | – | – | –
6 | Clc1cc(Cl)c(OCC#CI)cc1Cl [HALOPROGIN] | Not Active | Not Active | Not Active | Not Active | Not Active | Not Active | Not Active | Not Active | – | – | – | – | – | – | – | –
7 | COc1ccccc1OCCNCC(O)COc1cccc2[nH]c3ccccc3c12 (stereo not given) [CARVEDILOL] | – | – | Not Active | Not Active | Not Active | Not Active | Not Active | Not Active | – | – | – | – | – | – | 0.023 µM | 0.015 µM
8 | CCN1CCN(c2cc3c(cc2F)c(=O)c(C(=O)O)cn3C2CC2)CC1 [ENROFLOXACIN] | Not Active | Not Active | Not Active | Not Active | Not Active | Not Active | Not Active | Not Active | – | – | – | – | – | – | – | –
9 | POVIDONE | Not Active | Not Active | Not Active | Not Active | Not Active | Not Active | Not Active | Not Active | Not Active | Not Active | Not Active | Not Active | Not Active | Not Active | – | –
10 | C=C(Cl)Cl [1,1-DICHLOROETHENE] | Not Active | Not Active | Not Active | Not Active | Not Active | Not Active | Not Active | Not Active | – | – | – | – | – | – | – | –
11 | CC(=O)[C@]1(O)Cc2c(O)c3c(c(O)c2[C@@H](O[C@H]2C[C@H](N)[C@H](O)[C@H](C)O2)C1)C(=O)c1ccccc1C3=O [IDARUBICIN] | Not Active | Not Active | Not Active | Not Active | Not Active | Not Active | Not Active | Not Active | – | – | – | – | – | – | – | –
12 | NC(=O)CN1CCCC1=O | Not Active | Not Active | Not Active | Not Active | Not Active | Not Active | Not Active | Not Active | – | – | – | – | – | – | – | –
13 | CO[C@H]1O[C@@H]2O[C@@]3(C)CC[C@H]4[C@H](C)CC[C@@H]([C@H]1C)[C@@]24OO3 | Not Active | Not Active | Not Active | Not Active | Not Active | Not Active | Not Active | Not Active | – | – | – | – | – | – | – | –
14 | CC12CCC(CC1)C(C)(C)O2 [EUCALYPTOL] | Not Active | Not Active | Not Active | Not Active | Not Active | Not Active | Not Active | Not Active | – | – | – | – | – | – | – | –
15 | C[N+](C)(C)CCOC(N)=O.[Cl-] [CARBACHOL] | Not Active | Not Active | Not Active | Not Active | Not Active | Not Active | Not Active | Not Active | – | – | – | – | – | – | – | –
16 | NS(=O)(=O)c1cc(C(=O)O)c(NCc2ccco2)cc1Cl [FUROSEMIDE] | Not Active | Not Active | Not Active | Not Active | Not Active | Not Active | Not Active | Not Active | – | – | – | – | – | – | – | –
17 | CC(C)NCC(O)COc1ccc(CC(N)=O)cc1 (stereo not given) [ATENOLOL] | Not Active | Not Active | Not Active | Not Active | Not Active | Not Active | Not Active | Not Active | – | – | – | – | – | – | – | –
18 | Oc1ncnc2[nH]ncc12 [ALLOPURINOL] | Not Active | Not Active | Not Active | Not Active | Not Active | Not Active | Not Active | Not Active | – | – | – | – | – | – | – | –
19 | NCC(CC(=O)O)c1ccc(Cl)cc1 (stereo not given) [BACLOFEN] | Not Active | Not Active | Not Active | Not Active | Not Active | Not Active | Not Active | Not Active | – | – | – | – | – | – | – | –
20 | O=C1CN(/N=C/c2ccc([N+](=O)[O-])o2)C(=O)N1 [NITROFURANTOIN] | Not Active | Not Active | Not Active | Not Active | Not Active | Not Active | Not Active | Not Active | – | – | – | – | – | – | – | –
21 | CC12CCC(CC1=O)C2(C)C (stereo not given) [CAMPHOR] | Not Active | Not Active | Not Active | Not Active | Not Active | Not Active | Not Active | Not Active | – | – | – | – | – | – | – | –
22 | CC(CN1c2ccccc2Sc2ccccc21)N(C)C (stereo not given) [PROMETHAZINE] | – | – | Not Active | Not Active | Not Active | Not Active | Not Active | Not Active | – | – | – | – | – | – | 0.068 µM | 0.043 µM
23 | Cc1cc(C(C)(C)C)c(O)c(C)c1CC1=NCCN1 [OXYMETAZOLINE] | – | – | Not Active | Not Active | Not Active | Not Active | Not Active | Not Active | – | – | – | – | – | – | 3.06 µM | 1.94 µM
24 | CC(N)Cc1c[nH]c2ccc(OCc3cccs3)cc12 (stereo not given) [BW-723C86] | Not Active | – | Not Active | Not Active | Not Active | Not Active | Not Active | Not Active | – | – | – | – | – | – | – | –
25 | CNC[C@H](O)c1ccc(O)c(O)c1 [EPINEPHRINE] | – | Not Active | Not Active | Not Active | Not Active | Not Active | Not Active | Not Active | – | – | – | – | – | – | – | –
